Measured values taken from patent publication US11180459B2, “Bacterial efflux pump inhibitors” (RUTGERS, THE STATE UNIVERSITY OF NEW JERSEY, priority 2017, dated 2021).
Where a name gives a salt, the structure may show the parent alone. Marks after values point to notes of the source that are not given here.

How the values were obtained:
[1] = system: Escherichia coli ATCC 25922; test: Standard EPI assay: clarithromycin MIC with EPI; format: cell-based; settings: clarithromycin as antibiotic; E. coli ATCC 25922; EPI at 6.25 (μg)
Experimental: (§1) MIC assays were conducted in accordance with Clinical and Laboratory Standards Institute (CLSI) guidelines for broth microdilution.
(§2) The EPI assay for the purposes of these studies represents a MIC assay in which the MIC of the antibiotic against the bacteria is tested in the presence of an experimental efflux pump inhibitor (EPI). The highest concentration of the EPI present in the assay typically is ½ of the intrinsic MIC of the compound. If the intrinsic MIC of the EPI is greater than 100 μg/mL, the EPI assay was tested with 50 μg/mL. Using serial dilutions of the EPI, its enhancement of antibiotic activity was then evaluated. The relative EPI activity was decided by comparing the MIC of the antibiotic in the presence of the EPI compound with the intrinsic MIC of the antibiotic alone. For the evaluation of the efficacy of an EPI against bacteria that were pre-exposed to an antibiotic, the inoculum of bacteria that used was developed from a bacterial culture isolated as a single colony following exposure at ½ the MIIC of the antibiotic (so as to induce efflux pump expression), was to be used in combination with the EPI.
(§3) In our standard EPI assay, the MIC of the test antibiotic is determined in the absence and presence of sub-inhibitory concentrations of the EPI. Initially, the sub-inhibitory concentration used was ½×MIC of the EPI. […] The MIC of levofloxacin against P. aeruginosa ATCC 27853 in the absence of EPI is 1 μg/mL. […] Similar methodology was employed to examine the synergy with Escherichia coli ATCC 25922 in the presence of varied concentrations of these EPIs using clarithromycin as the antibiotic.

[2] = system: Pseudomonas aeruginosa ATCC 27853; test: Standard EPI assay: levofloxacin MIC with EPI; format: cell-based; settings: levofloxacin as antibiotic; P. aeruginosa ATCC 27853; EPI at 12.5 (μg)
Experimental: as §1, §2, §3

[3] = system: P. aeruginosa [ATCC 27853]; test: Mouse septicemia model of infection; format: in vivo, Swiss Webster female mice; settings: Experiment #521, cefepime 10 mg/ml b.i.d.
Experimental: A general method for the in vivo assessment of bacterial EPIs is complicated by the fact that that both the antibiotic and the EPI need to be present for synergy to be achieved. A general method was discovered that has proven to be effective in establishing the relative efficacy of bacterial EPIs in a mouse septicemia model. The bacterial EPI is administered initially intravenously to mice with septicemia, followed 5 minutes later by the intravenous administration or oral administration of the antibiotic. A second administration of the EPI is then administered subcutaneously after an additional 5 minutes to act as a booster, followed by the final administration of the antibiotic either intravenously or orally after the second administration of the EPI. […] In a few instances, a second regiment of both EPI and antibiotic as administered on day 1 was required after 24 hours to affect cures.
Determination of the in vivo efficacy of bacterial efflux pump inhibitors (EPIs) can be efficiently determined using a mouse septicemia model of infection. The systemic infection is initiated by a 500 ul intraperitoneal injection of an inoculum containing bacteria (such as P. aeruginosa [ATCC 27853]) at a concentration of approximately 5×10^5 cells in 5% mucin in Swiss Webster female mice. […]

[4] = system: P. aeruginosa ATCC 27853; test: Pre-exposure bacterial EPI assay (MIC against bacteria pre-exposed to 1/2 x MIC antibiotic); format: cell-based; settings: Pseudomonas aeruginosa, ATCC27853, read-out: MIC of cefepime against P. aeruginosa pre-exposed to cefepime
Excerpt: The principle underlying this pre-exposure is that exposure of the bacteria to sub-inhibitory concentrations of the test antibiotic will induce expression of efflux pumps, if any, and may represent the scenario in vivo more accurately.

| SMILES | Enhanced Activity in E. coli (fold enhancement of antibiotic activity / EPI concentration) [1] | Enhanced Activity in P. aeruginosa (fold enhancement of antibiotic activity / EPI concentration) [2] | % Survival (72 hr) Antibiotic + EPI ([3]; 250 ul + Example 22 2.0 mg/ml b.i.d.) | MIC [4] | % Survival (72 hr) Antibiotic Only ([3]; 250 ul) |
| --- | --- | --- | --- | --- | --- |
| NC[C@H]1CN[C@H](CNC(=O)c2nc3cc(-c4ccc(F)cc4)ccc3[nH]2)C1 [Example 22, N-(((2S,4S)-4-(aminomethyl)pyrrolidin-2-yl)methyl)-5-(4-fluorophenyl)-1H-benzo[d]imidazole-2-carboxamidedihydrochloride] | 2×/6.25 | 32×/12.5 | 75% | – | – |
| CO/N=C(\C(=O)N[C@@H]1C(=O)N2C(C(=O)[O-])=C(C[N+]3(C)CCCC3)CS[C@H]12)c1csc(N)n1 [cefepime, reference compound] | – | – | – | 16 µg/mL | 25%***** |
